The values that follow come from patent US7173035B2, “Arylsulfonamide compounds” (Biovitrum AB, priority 2001, dated 2007).

Counter-ions that a name gives are not always drawn.

Usually melting point stands for the temperature, or range, at which the solid turns liquid.

For one data set, the system named is Obese (ob/ob) mouse. Nature of the data set: In vivo assay of reduction of food intake.

`CN1CCCN(c2ccc(S(=O)(=O)Nc3ccccc3)cc2N)CC1` (as salt: hydrochloride) [Example 92, 3-Amino-4-(4-methyl-1,4-diazepan-1-yl)-N-phenylbenzenesulfonamide]: the melting point was 84 to 85 °C. As for `Cl.O=S(=O)(Nc1ccc(N2CCCNCC2)cc1NS(=O)(=O)c1ccccc1)c1ccccc1` [Example 27, N-{4-(homopiperazinyl)-2-[(phenylsulfonyl)amino]phenyl}benzenesulfonamide hydrochloride], in the data set with Obese (ob/ob) mouse (Dose 50 mg/Kg), the “Reduction of Food Intake (%) po administration” value is 28%. For `CCN(c1cc(N2CCCNCC2)ccc1NS(=O)(=O)c1ccccc1)S(=O)(=O)c1ccccc1.Cl` [Example 29, N-{4-(1,4-diazepan-1-yl)-2-[ethyl(phenylsulfonyl)amino]phenyl}benzenesulfonamide hydrochloride], the “Reduction of Food Intake (%) po administration” value in the data set with Obese (ob/ob) mouse (Dose 100 mg/Kg) turned out to be 60%.
